Experiments:
WIZ = biological target: T1, WIZ (Homo sapiens, UniProt O95785+Q96SW2); experiment: Quantification of WIZ protein levels in HiBit tag fusion protein assay (WIZ HiBit assay in 293T cells); type: cell-based; conditions: for Dmax at 25 µM / remaining activity at 25 µM: HEK-293T; for Dmax at 25 µM: 100 minus Amax at 25 uM, read-out: % degradation of WIZ (100-Amax); for remaining activity at 25 µM: DMSO-normalized, curve-fitted percentage of WIZ-HiBit remaining at 25 uM, read-out: WIZ Amax; for DC50: WIZ HiBit assay in 293T cells, 10-point, 5-fold dilution, highest concentration 25 μM, about 18 hours, read-out: WIZ AC50
T1 construct: expressed in transfected cells
Procedure, shortened: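 293T cells stably carrying single-copy HiBit-WIZ (HSVTK promoter) treated ~18 h at 37 °C with 10-point, 5-fold dilutions, top 25 μM. Lytic HiBit luminescence read; Amax is DMSO-normalised, curve-fitted % WIZ-HiBit remaining at 25 uM.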

Fetal Hemoglobin (HbF) = experiment: Small molecule HbF induction assay (erythroid differentiated mPB CD34+ cells, flow cytometry); type: cell-based, human; conditions: for EC50: Homo sapiens, mPB CD34+ cells expanded 6 days, erythroid differentiated with compound 7 days, 7-point, 1:3 dilution from 30 uM; for HbF Amax: highest percentage of cells staining positive for HbF (% HbF+ cells) in the fitted dose-response curve, DMSO baseline approximately 30-40%
Description: Cryopreserved primary human CD34^+ hematopoietic stem and progenitor cells were obtained from AllCells, LLC. The CD34^+ cells were isolated from the peripheral blood of healthy donors after mobilization by administration of granulocyte colony-stimulating factor. Cells were differentiated ex vivo toward the erythroid lineage using a 2-phase culture method. In the first phase, cells were cultured in StemSpan™ Serum-Free Expansion Media (SFEM) ([…] Technologies Inc.) supplemented with rhSCF (50 ng/mL, Peprotech®, Inc.), rhIL-6 (50 ng/mL, Peprotech®, Inc.), rhIL-3 (50 ng/mL, Peprotech®, Inc.), and rhFlt3L (50 ng/mL, Peprotech®, Inc.), and 1× antibiotic-antimycotic (Life Technologies, Thermo Fisher Scientific) for 6 days at 37° C. with 5% CO2. During the second phase, cells were cultured in erythroid differentiation media at 5,000 cells/mL in the presence of compound for 7 days at 37° C. with 5% CO2. Erythroid Differentiation Media is comprised of IMDM (Life Technologies) supplemented with insulin (10 μg/mL, Sigma Aldrich), heparin (2 U/mL Sigma Aldrich), holo-transferrin (330 μg/mL, Sigma Aldrich), human serum AB (5%, Sigma Aldrich), hydrocortisone (1 μM, […] Technologies), rhSCF (100 ng/mL, Peprotech®, Inc.), rhIL-3 (5 ng/mL, Peprotech®, Inc.), rhEPO (3 U/mL, Peprotech®, Inc.), and 1× antibiotic-antimycotic. All compounds were dissolved and diluted into dimethylsulfoxide (DMSO) and were added to culture media for a final concentration of 0.3% DMSO for testing in a 7-point, 1:3 dilution series starting at 30 uM.
For viability analysis, samples were washed and resuspended in phosphate-buffered saline (PBS) and stained with LIVE/DEAD™ Fixable Violet Dead Cell Stain Kit (Life Technologies, L34963) for 20 minutes. Cells were then washed again with PBS and resuspended in PBS supplemented with 2% fetal bovine serum (FBS), and 2 mM EDTA to prepare for cell surface marker analysis. Cells were labeled with allophycocyanin-conjugated CD235a (1:100, BD Biosciences, 551336) and Brilliant Violet-conjugated CD71 (1:100, BD Biosciences, 563767) antibodies for 20 minutes. For analysis of cytoplasmic Fetal Hemoglobin (HbF), cells were fixed and permeabilized using the Fixation (BioLegend®, 420801) and Permeabilization Wash (BioLegend®, 421002) Buffers according to the manufacturer's protocol. During the permeabilization step, cells were stained with phycoerythrin-conjugated or FITC-conjugated HbF-specific antibody (1:10-1:25, Invitrogen™, MHFH04-4) for 30 minutes. Stained cells were washed with phosphate-buffered saline before analysis on the FACSCanto™ I1 flow cytometer or LSRFortessa™ (BD Biosciences). […]
mPB CD34+ cells were expanded for 6 days, then erythroid differentiated in the presence of compound for 7 days. Cells were fixed, stained and analyzed by flow cytometry. […]

T1 sequence (O95785 whole entry, the tested form may be a part): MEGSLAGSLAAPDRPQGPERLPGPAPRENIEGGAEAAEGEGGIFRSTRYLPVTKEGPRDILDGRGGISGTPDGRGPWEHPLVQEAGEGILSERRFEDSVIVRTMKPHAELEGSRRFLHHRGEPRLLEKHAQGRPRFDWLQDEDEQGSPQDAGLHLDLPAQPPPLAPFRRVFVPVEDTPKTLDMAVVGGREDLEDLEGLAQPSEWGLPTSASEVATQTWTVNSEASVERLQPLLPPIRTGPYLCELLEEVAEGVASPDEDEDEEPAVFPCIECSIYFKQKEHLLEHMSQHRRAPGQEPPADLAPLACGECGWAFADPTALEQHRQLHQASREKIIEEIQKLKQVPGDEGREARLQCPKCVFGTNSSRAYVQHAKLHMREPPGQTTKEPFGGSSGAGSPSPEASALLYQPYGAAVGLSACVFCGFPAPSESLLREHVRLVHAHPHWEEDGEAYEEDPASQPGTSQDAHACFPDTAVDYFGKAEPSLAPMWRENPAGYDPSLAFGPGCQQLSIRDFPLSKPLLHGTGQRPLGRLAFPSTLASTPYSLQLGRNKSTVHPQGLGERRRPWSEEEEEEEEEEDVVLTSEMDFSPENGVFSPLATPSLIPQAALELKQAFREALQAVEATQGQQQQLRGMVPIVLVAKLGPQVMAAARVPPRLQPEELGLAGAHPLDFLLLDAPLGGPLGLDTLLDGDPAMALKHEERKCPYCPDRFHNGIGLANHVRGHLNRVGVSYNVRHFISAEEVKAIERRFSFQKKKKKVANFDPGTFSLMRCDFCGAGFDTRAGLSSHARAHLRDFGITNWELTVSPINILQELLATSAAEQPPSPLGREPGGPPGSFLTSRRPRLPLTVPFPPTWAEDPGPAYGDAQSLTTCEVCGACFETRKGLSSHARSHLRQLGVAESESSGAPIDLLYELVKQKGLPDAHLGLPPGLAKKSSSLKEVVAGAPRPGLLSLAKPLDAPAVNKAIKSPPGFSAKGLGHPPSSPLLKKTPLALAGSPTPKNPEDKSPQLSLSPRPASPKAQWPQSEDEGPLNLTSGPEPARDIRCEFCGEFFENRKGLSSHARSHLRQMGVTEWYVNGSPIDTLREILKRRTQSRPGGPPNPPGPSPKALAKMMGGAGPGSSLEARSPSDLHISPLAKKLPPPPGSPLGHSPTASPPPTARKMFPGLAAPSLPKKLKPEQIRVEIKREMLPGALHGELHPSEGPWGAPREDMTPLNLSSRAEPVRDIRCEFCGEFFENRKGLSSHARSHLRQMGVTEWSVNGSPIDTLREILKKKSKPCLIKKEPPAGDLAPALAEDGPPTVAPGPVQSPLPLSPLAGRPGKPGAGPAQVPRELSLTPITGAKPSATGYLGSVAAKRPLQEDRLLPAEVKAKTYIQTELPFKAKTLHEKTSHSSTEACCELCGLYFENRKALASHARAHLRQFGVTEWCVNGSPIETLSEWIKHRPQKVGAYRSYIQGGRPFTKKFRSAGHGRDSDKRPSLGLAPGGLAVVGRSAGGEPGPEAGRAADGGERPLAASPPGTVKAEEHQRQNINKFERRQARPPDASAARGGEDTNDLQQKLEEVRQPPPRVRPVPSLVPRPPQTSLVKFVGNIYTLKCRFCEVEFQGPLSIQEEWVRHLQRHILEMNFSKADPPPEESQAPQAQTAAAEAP
T1 sequence (Q96SW2 whole entry, the tested form may be a part): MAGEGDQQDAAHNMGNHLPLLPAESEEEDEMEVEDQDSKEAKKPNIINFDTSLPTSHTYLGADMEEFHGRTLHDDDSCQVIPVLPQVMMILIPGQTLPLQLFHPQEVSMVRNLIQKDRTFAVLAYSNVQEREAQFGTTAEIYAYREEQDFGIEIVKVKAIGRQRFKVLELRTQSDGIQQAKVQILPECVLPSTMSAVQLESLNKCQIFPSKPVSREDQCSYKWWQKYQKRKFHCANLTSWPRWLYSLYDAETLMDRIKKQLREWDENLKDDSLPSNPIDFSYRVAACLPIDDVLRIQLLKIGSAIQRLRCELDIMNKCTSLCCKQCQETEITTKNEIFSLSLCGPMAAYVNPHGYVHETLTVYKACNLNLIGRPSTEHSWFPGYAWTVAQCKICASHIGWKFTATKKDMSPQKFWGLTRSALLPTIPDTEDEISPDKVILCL
T1 sequence (Q16531 whole entry partner, the tested form may be a part): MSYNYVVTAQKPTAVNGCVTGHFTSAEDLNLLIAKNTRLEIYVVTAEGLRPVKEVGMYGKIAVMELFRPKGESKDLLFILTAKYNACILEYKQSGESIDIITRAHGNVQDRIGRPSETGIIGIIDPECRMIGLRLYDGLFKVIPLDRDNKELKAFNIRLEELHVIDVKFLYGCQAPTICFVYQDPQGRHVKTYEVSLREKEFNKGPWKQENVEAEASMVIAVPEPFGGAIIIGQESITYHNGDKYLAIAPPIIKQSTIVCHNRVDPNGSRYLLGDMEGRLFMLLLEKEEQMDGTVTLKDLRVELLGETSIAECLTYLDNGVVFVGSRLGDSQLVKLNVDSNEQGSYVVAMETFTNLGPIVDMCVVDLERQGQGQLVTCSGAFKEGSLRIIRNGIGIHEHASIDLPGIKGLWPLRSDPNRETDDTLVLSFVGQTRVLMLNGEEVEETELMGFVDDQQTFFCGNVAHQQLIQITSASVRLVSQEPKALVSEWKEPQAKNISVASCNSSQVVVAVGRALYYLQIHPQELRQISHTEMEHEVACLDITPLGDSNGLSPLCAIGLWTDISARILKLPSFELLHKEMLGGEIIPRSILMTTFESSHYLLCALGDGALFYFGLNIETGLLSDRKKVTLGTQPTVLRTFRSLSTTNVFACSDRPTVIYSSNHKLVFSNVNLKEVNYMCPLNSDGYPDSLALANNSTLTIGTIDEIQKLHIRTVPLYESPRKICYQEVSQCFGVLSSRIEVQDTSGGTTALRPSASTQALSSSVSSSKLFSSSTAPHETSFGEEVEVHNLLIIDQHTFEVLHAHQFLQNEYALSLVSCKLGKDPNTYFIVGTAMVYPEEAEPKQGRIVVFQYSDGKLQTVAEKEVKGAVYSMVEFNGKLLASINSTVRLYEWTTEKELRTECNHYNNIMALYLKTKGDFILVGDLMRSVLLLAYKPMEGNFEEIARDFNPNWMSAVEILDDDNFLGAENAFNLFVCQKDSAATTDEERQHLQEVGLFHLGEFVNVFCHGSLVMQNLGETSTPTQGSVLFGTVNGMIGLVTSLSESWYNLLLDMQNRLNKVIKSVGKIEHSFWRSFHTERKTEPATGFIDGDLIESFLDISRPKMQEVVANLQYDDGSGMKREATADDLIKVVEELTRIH

Work on `C[C@H]1CN(Cc2ccc3onc(N4CCC(=O)NC4=O)c3c2)CCN1C` [Example 29, (S)-1-(5-((3,4-dimethylpiperazin-1-yl)methyl)benzo[d]isoxazol-3-yl)dihydropyrimidine-2,4(1H,3H)-dione] yielded a Dmax at 25 µM (WIZ) of 89%, a remaining activity at 25 µM (WIZ) of 11% and a DC50 (WIZ) of 6.4 nM. For the same compound, the EC50 (Fetal Hemoglobin (HbF)) was 45 nM and the “HbF Amax” value (Fetal Hemoglobin (HbF)) was 80%.
With `C[C@@H]1CN(C)CCN1Cc1ccc2onc(N3CCC(=O)NC3=O)c2c1` [Example 65, (R)-1-(5-((2,4-dimethylpiperazin-1-yl)methyl)benzo[d]isoxazol-3-yl)dihydropyrimidine-2,4(1H,3H)-dione] the Dmax at 25 µM (WIZ) was 84%, the remaining activity at 25 µM (WIZ) was 16% and the DC50 (WIZ) was 89 nM. For the same compound, the EC50 (Fetal Hemoglobin (HbF)) was 172 nM and the “HbF Amax” value (Fetal Hemoglobin (HbF)) was 76%.
